In patent publication US7601716B2, “Pyridopyrazines and derivatives thereof as ALK and c-Met inhibitors” (Cephalon, Inc., priority 2006, dated 2009):
Counter-ions that a name gives are not always drawn.

Experiments:
[1] = biological target: baculovirus-expressed ALK (Homo sapiens, UniProt Q9UM73); assay: ALK Kinase Assay (ELISA/TRF, PLC-γ substrate); assay type: biochemical; conditions: read-out: ALK Kinase Inhibition (IC50); note: 1 µM ATP (Km level)
Method in brief: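 ALK at 30 ng/ml phosphorylated plate-bound PLC-γ–GST fusion (coated from 10 μg/mL) during 15 minutes at 37° C. Product was detected with Eu-N1 PT66 anti-phosphotyrosine antibody and measured by time-resolved fluorescence.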

[2] = biological target: T1, c-Met (cytoplasmic domain) (Homo sapiens, UniProt P08581); assay: c-Met Kinase Assay (ELISA/TRF, PLC-γ substrate); assay type: biochemical; conditions: 3 μM ATP (Km level); read-out: c-Met Kinase Inhibition (IC50)
T1 construct: Reactions were initiated with 30 ng/mL c-Met (cytoplasmic domain, Invitrogen Corporation #PV3143); purchased Invitrogen Corporation PV3143
Procedure: Example compounds were tested for their ability to inhibit the kinase activity of baculovirus-expressed ALK using a modification of the ELISA protocol reported for trkA in Angeles, T. S. et al., Anal. Biochem. 1996, 236, 49-55, which is incorporated herein by reference in its entirety. Phosphorylation of the substrate, phospholipase C-gamma (PLC-γ) generated as a fusion protein with glutathione S-transferase (GST) as reported in Rotin, D. et al., EMBO J. 1992, 11, 559-567, which is incorporated herein by reference in its entirety, was detected with a europium-labeled anti-phosphotyrosine antibody and measured by time-resolved fluorescence (TRF). Briefly, each 96-well plate was coated with 100 μL/well of 10 μg/mL substrate (phospholipase C-γ) in Tris-buffered saline (TBS). […] The reaction was initiated by adding enzyme (30 ng/ml ALK) and was allowed to proceed at 37° C. for 15 minutes. Detection of the phosphorylated product was performed by adding 100 μl/well of Eu-N1 labeled PT66 antibody (Perkin Elmer # AD0041). Incubation at 37° C. then proceeded for one (1) hour, followed by addition of 100 μL enhancement solution (Wallac #1244-105). The plate was gently agitated and after thirty minutes, the fluorescence of the resulting solution was measured using the EnVision 2100 (or 2102) multilabel plate reader (Perkin Elmer).
Data analysis was performed using ActivityBase (IDBS, Guilford, UK). IC50 values were calculated by plotting percent inhibition versus log10 of the concentration of compound and fitting to the nonlinear regression sigmoidal dose-response (variable slope) equation in XLFit (IDBS, Guilford, UK).
Reactions were initiated with 30 ng/mL c-Met (cytoplasmic domain, Invitrogen Corporation #PV3143).

baculovirus-expressed ALK, sequence (Q9UM73 19-1620): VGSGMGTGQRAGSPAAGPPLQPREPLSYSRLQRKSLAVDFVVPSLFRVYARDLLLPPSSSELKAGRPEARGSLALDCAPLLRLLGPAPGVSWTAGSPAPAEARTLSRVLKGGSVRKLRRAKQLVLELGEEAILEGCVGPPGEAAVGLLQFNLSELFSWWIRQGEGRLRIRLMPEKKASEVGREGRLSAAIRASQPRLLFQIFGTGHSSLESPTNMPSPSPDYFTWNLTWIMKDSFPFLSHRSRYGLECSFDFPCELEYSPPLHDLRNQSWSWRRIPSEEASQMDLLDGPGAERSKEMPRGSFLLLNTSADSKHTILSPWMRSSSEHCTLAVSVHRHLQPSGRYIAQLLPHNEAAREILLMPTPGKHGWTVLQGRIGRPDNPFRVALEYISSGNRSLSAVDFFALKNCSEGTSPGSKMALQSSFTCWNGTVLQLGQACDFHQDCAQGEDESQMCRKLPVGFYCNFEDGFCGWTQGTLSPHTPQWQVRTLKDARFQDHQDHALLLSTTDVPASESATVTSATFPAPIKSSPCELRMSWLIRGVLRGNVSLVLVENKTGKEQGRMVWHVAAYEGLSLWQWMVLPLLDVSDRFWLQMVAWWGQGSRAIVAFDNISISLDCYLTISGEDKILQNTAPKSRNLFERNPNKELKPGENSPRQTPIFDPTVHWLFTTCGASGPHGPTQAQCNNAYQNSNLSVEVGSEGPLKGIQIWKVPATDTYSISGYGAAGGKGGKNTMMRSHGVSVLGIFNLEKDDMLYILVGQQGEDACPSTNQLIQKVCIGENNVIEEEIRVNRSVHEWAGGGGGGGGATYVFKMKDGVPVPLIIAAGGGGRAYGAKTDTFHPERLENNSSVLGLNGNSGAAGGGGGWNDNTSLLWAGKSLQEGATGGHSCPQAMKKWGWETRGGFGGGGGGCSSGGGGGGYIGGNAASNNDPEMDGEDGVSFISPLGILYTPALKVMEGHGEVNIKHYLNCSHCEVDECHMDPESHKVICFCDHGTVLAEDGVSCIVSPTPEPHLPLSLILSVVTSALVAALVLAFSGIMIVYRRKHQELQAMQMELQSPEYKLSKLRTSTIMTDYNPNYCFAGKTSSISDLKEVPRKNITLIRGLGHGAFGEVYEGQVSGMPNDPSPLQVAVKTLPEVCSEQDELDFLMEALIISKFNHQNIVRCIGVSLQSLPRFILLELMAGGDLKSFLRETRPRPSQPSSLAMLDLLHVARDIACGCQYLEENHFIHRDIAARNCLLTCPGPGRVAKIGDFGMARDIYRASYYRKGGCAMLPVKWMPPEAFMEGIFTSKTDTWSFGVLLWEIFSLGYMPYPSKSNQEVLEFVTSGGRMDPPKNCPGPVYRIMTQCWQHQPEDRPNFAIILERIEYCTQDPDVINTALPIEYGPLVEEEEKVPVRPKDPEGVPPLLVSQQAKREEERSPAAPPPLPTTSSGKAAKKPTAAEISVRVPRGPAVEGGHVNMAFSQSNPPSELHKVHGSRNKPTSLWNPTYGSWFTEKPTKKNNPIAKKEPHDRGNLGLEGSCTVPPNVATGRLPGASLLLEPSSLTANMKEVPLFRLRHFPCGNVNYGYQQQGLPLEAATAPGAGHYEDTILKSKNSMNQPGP
T1 sequence (P08581 956-1390 limits assumed): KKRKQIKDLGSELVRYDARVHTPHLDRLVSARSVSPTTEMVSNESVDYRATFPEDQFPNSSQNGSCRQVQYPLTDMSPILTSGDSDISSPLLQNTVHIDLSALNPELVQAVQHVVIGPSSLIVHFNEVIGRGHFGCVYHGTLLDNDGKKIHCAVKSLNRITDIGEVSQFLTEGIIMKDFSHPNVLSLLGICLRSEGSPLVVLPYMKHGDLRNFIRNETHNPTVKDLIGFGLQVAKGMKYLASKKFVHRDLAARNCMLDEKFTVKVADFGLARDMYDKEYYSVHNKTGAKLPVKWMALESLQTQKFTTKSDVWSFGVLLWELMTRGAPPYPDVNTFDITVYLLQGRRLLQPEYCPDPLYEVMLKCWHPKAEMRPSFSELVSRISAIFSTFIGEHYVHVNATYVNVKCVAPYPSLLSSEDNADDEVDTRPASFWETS

| IC50 [1] | IC50 [2] | SMILES |
| --- | --- | --- |
| 1 to 10 µM | 10 to 100 µM | O=C1CNc2ncc(-c3cccnc3)cc2N1Cc1c(F)ccc(F)c1Cl [Example 4, 1-(2-Chloro-3,6-difluorobenzyl)-7-pyridin-3-yl-3,4-dihydro-1H-pyrido[2,3-b]pyrazin-2-one, trifluoroacetic acid salt] |
| 1 to 10 µM | 10 to 100 µM | CN1CCN(C(=O)c2ccc(-c3cnc4c(c3)N(Cc3c(F)ccc(F)c3Cl)C(=O)CN4)cc2)CC1 [Example 7, 1-(2-Chloro-3,6-difluorobenzyl)-7-[4-(4-methylpiperazine-1-carbonyl)phenyl]-3,4-dihydro-1H-pyrido[2,3-b]pyrazin-2-one] |
| 1 to 10 µM | 10 to 100 µM | O=C(NCCN1CCCC1)c1ccc(-c2cnc3c(c2)N(Cc2ccccc2)C(=O)CN3)cc1 [Example 12, 4-(1-Benzyl-2-oxo-1,2,3,4-tetrahydropyrido[2,3-b]pyrazin-7-yl)-N-(2-pyrrolidin-1-yl-ethyl)benzamide, trifluoroacetic acid salt] |
| 10 to 100 µM | > 100 µM | O=C1CNc2ncc(-c3ccc(C(=O)N4CCC[C@H]4CN4CCCC4)cc3)cc2N1Cc1ccccc1 [Example 13, S-1-Benzyl-7-[4-(2-[(pyrrolidin-1-yl)methyl]pyrrolidine-1-carbonyl)phenyl]-3,4-dihydro-1H-pyrido[2,3-b]pyrazin-2-one, trifluoroacetic acid salt] |
| 10 to 100 µM | > 100 µM | O=C(NCCCN1CCOCC1)c1ccc(-c2cnc3c(c2)N(Cc2ccccc2)C(=O)CN3)cc1 [Example 14, 4-(1-Benzyl-2-oxo-1,2,3,4-tetrahydropyrido[2,3-b]pyrazin-7-yl)-N-(3-morpholin-4-yl-propyl)benzamide, trifluoroacetic acid salt] |
| 1 to 10 µM | 10 to 100 µM | CN(C)CCCCNC(=O)c1ccc(-c2cnc3c(c2)N(Cc2ccccc2)C(=O)CN3)cc1 [Example 15, 4-(1-Benzyl-2-oxo-1,2,3,4-tetrahydropyrido[2,3-b]pyrazin-7-yl)-N-(4-dimethylaminobutyl)benzamide, trifluoroacetic acid salt] |
| 10 to 100 µM | 10 to 100 µM | O=C(c1ccc(-c2cnc3ncc(=O)n(Cc4ccccc4)c3c2)cc1)N1CCC(N2CCCC2)CC1 [Example 17, 1-Benzyl-7-[4-(4-(pyrrolidin-1-yl)piperidine-1-carbonyl)phenyl]-1H-pyrido[2,3-b]pyrazin-2-one, trifluoroacetic acid salt] |
| 1 to 10 µM | 10 to 100 µM | O=C1CNc2ncc(-c3cccc(C(=O)N4CCC[C@H]4CN4CCCC4)c3)cc2N1Cc1ccccc1 [Example 18, S-1-Benzyl-7-[3-(2-[(pyrrolidin-1-yl)methyl]pyrrolidine-1-carbonyl)phenyl]-3,4-dihydro-1H-pyrido[2,3-b]pyrazin-2-one, trifluoroacetic acid salt] |
| 1 to 10 µM | 10 to 100 µM | CN(C)CCNC(=O)c1cccc(-c2cnc3c(c2)N(Cc2ccccc2)C(=O)CN3)c1 [Example 19, 3-(1-Benzyl-2-oxo-1,2,3,4-tetrahydropyrido[2,3-b]pyrazin-7-yl)-N-(2-dimethylamino-ethyl)benzamide, trifluoroacetic acid salt] |
| 1 to 10 µM | 10 to 100 µM | O=C(c1cccc(-c2cnc3c(c2)N(Cc2ccccc2)C(=O)CN3)c1)N1CCCC1 [Example 20, 1-Benzyl-7-[3-(pyrrolidine-1-carbonyl)phenyl]-3,4-dihydro-1H-pyrido[2,3-b]pyrazin-2-one] |
| > 100 µM | > 100 µM | CCNC(=O)c1cccc(-c2cnc3c(c2)N(Cc2ccccc2)C(=O)CN3)c1 [Example 22, 3-(1-Benzyl-2-oxo-1,2,3,4-tetrahydropyrido[2,3-b]pyrazin-7-yl)-N-ethyl-benzamide] |
| 1 to 10 µM | > 100 µM | CS(=O)(=O)c1ccc(-c2cnc3c(c2)N(Cc2ccccc2)C(=O)CN3)cc1 [Example 24, 1-Benzyl-7-(4-methanesulfonyl-phenyl)-3,4-dihydro-1H-pyrido[2,3-b]pyrazin-2-one] |
| 1 to 10 µM | 10 to 100 µM | CN1CCN(C(=O)c2ccc(-c3cnc4c(c3)N(Cc3ccccc3)C(=O)CN4)cc2)CC1 [Example 25, 1-Benzyl-7-[4-(4-methylpiperazine-1-carbonyl)phenyl]-3,4-dihydro-1H-pyrido[2,3-b]pyrazin-2-one, trifluoroacetic acid salt] |
| 1 to 10 µM | 10 to 100 µM | O=C(c1ccc(-c2cnc3c(c2)N(Cc2ccccc2)C(=O)CN3)cc1)N1CCC(N2CCCC2)CC1 [Example 26, 1-Benzyl-7-[4-(4-(pyrrolidin-1-yl)piperidine-1-carbonyl)phenyl]-3,4-dihydro-1H-pyrido[2,3-b]pyrazin-2-one, trifluoroacetic acid salt] |
| 0.1 to 1 µM | 10 to 100 µM | CCOC(=O)c1ccc(-c2cnc3c(c2)N(Cc2ccccc2)C(=O)CN3)cn1 [Example 29, 5-(1-Benzyl-2-oxo-1,2,3,4-tetrahydropyrido[2,3-b]pyrazin-7-yl)pyridine-2-carboxylic acid ethyl ester] |
| > 100 µM | 10 to 100 µM | O=C(O)c1cccc(-c2cnc3c(c2)N(Cc2ccccc2)C(=O)CN3)c1 [Example 31, 3-(1-Benzyl-2-oxo-1,2,3,4-tetrahydropyrido[2,3-b]pyrazin-7-yl)benzoic acid] |
| > 100 µM | > 100 µM | c1ccc(CN2CCNc3ncccc32)cc1 [Example 32, 1-Benzyl-1,2,3,4-tetrahydropyrido[2,3-b]pyrazine] |
| 1 to 10 µM | 10 to 100 µM | c1ccc(CN2CCNc3ncc(-c4cccnc4)cc32)cc1 [Example 34, 1-Benzyl-7-pyridin-3-yl-1,2,3,4-tetrahydropyrido[2,3-b]pyrazine] |
| 1 to 10 µM | > 100 µM | O=C1CNc2ncc(-c3ccc(NS(=O)(=O)CCN4CCCC4)cc3)cc2N1Cc1ccccc1 [Example 45, 2-Pyrrolidin-1-yl-ethanesulfonic acid[4-(1-benzyl-2-oxo-1,2,3,4-tetrahydropyrido[2,3-b]pyrazin-7-yl)phenyl]amide, trifluoroacetic acid salt] |
| 10 to 100 µM | 10 to 100 µM | O=C(c1ccccc1)N1CCNc2ncc(-c3ccc(NS(=O)(=O)CCN4CCCC4)cc3)cc21 [Example 46, 2-Pyrrolidin-1-yl-ethanesulfonic acid[4-(1-benzoyl-1,2,3,4-tetrahydropyrido[2,3-b]pyrazin-7-yl)phenyl]amide] |
| 10 to 100 µM | 10 to 100 µM | CN1CCN(CCS(=O)(=O)Nc2ccc(-c3cnc4c(c3)N(C(=O)c3ccccc3)CCN4)cc2)CC1 [Example 47, 2-(4-Methylpiperazin-1-yl)-ethanesulfonic acid[4-(1-benzoyl-1,2,3,4-tetrahydropyrido[2,3-b]pyrazin-7-yl)phenyl]amide] |
| 0.1 to 1 µM | 10 to 100 µM | O=C1CNc2ncc(-c3ccc(NS(=O)(=O)CCN4CCC[C@H]4CN4CCCC4)cc3)cc2N1Cc1cc(F)ccc1F [Example 49] |
| > 100 µM | 10 to 100 µM | CN1CCN(C(=O)c2ccc(-c3cnc4c(c3)N(C(=O)c3ccccc3)CCN4)cc2)CC1 [Example 54, {7-[4-(4-Methylpiperazine-1-carbonyl)phenyl]-3,4-dihydro-2H-pyrido[2,3-b]pyrazin-1-yl}phenylmethanone] |
| 0.1 to 1 µM | 1 to 10 µM | O=C1CNc2ncc(-c3ccc(NC(=O)N4CCC[C@H]4CN4CCCC4)cc3)cc2N1Cc1cc(F)ccc1F [Example 61, (S)-2-[(pyrrolidin-1-yl)methyl]pyrrolidine-1-carboxylic acid{4-[1-(2,5-difluorobenzyl)-2-oxo-1,2,3,4-tetrahydropyrido[2,3-b]pyrazin-7-yl]phenyl}-amide] |
| 0.1 to 1 µM | – | COc1ccccc1CN(C)C(=O)c1ccc(-c2cnc3c(c2)N(Cc2cc(Cl)ccc2C(F)(F)F)CCN3)cc1 [Example 432, 4-{1-[5-Chloro-2-(trifluoromethyl)benzyl]-1,2,3,4-tetrahydropyrido[2,3-b]pyrazin-7-yl}-N-(2-methoxybenzyl)-N-methylbenzamide] |
| 0.1 to 1 µM | – | O=C(c1ccc(-c2cnc3c(c2)N(Cc2cc(Cl)ccc2C(F)(F)F)CCN3)cc1)N1Cc2ccccc2C1 [Example 433, (4-{1-[5-Chloro-2-(trifluoromethyl)benzyl]-1,2,3,4-tetrahydropyrido[2,3-b]pyrazin-7-yl}phenyl)-(1,3-dihydroisoindol-2-yl)methanone] |
| 0.1 to 1 µM | – | O=C(c1ccc(-c2cnc3c(c2)N(Cc2cc(Cl)ccc2C(F)(F)F)CCN3)cc1)N1CCC2(CC1)OCc1ccccc12 [Example 434, {4-[1-(5-Chloro-2-trifluoromethyl-benzyl)-1,2,3,4-tetrahydropyrido[2,3-b]pyrazin-7-yl]-phenyl}-(spiro[isobenzofuran-1(3H), 4′-piperidine]-1-yl)methanone] |
